According to ChEMBL document CHEMBL1201862, “PubChem BioAssay data set” (2004):
The source made the active and inactive calls.

Legend:
[1] = cytotoxicity toward DRD oncogenic fibroblasts, dose response, cell-based, non-viral oncogenic, luminescence (AID 1934); assay type: functional; conditions: Homo sapiens
BJ [2] = assay: cells; assay type: functional, cell-based; conditions: Homo sapiens
BJ [3] = assay: cytotoxicity toward BJ-TERT fibroblasts, dose response, cell-based, RAS-independent, luminescence (AID 1933); assay type: functional; conditions: Homo sapiens
BJ [4] = assay: cytotoxicity toward BJ-TERT-LT-ST fibroblasts, dose response, cell-based, RAS-independent, luminescence (AID 1935); assay type: functional; conditions: Homo sapiens;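 further: BJ fibroblasts immortalized with TERT plus LT and ST oncogenes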
Ephrin type-A receptor 4 = Ephrin type-A receptor 4 (Mus musculus, UniProt Q03137); assay: inhibitors of EphA4 binding to KYL peptide, primary screen, biochemical, colorimetric, mouse EphA4 (AID 689); assay type: functional
[5] = target: T1, Short transient receptor potential channel 4 (Mus musculus, UniProt Q9QUQ5); assay: mouse TRPC4 channel inhibitors, dose response, cell-based, HEK293 TRPC4/mu-opioid, Fluo-4 calcium (AID 434942); assay type: functional;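 further: potency of inhibitors blocking the TRPC4 calcium response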
T1 sequence (Q9QUQ5 whole entry): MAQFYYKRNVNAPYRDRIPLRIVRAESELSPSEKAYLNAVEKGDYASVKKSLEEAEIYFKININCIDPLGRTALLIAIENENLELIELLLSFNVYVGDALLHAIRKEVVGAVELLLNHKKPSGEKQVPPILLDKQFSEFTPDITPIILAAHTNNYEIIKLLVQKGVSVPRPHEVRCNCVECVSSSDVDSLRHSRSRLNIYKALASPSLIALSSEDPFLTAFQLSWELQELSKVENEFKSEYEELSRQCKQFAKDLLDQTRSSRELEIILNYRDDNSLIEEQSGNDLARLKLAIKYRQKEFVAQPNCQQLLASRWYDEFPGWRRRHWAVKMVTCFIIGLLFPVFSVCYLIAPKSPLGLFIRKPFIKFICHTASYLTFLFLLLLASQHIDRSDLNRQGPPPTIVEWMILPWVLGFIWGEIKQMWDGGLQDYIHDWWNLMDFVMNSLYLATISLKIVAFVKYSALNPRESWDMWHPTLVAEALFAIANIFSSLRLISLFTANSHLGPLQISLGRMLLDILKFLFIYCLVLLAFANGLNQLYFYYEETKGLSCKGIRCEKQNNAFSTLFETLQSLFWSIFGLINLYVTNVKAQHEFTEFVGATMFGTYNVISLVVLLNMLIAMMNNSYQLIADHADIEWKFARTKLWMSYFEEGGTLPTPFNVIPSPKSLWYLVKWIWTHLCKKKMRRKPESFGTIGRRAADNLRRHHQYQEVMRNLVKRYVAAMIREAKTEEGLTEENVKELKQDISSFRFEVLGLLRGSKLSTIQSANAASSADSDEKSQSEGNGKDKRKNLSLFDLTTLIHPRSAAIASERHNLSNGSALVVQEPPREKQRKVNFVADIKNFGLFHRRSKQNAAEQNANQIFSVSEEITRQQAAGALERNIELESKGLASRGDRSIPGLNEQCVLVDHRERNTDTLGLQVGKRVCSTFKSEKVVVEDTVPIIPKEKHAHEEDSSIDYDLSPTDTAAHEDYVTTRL

Prothrombin = Prothrombin (Homo sapiens, UniProt P00734); assay: Thrombin 1536 HTS Dose Response Confirmation. [Related pubchem assays: 1046 (Thrombin 1536 HTS; hits were confirmed in this assay)]; assay type: functional
[6] = A cytotoxicity screen of small molecule inhibitors of the PhoP region in Salmonella typhi identified in the primary screen. [Related pubchem assays: 1850, 1864, 1985 ]; assay type: functional
[7] = target: Peroxisome proliferator-activated receptor gamma/Nuclear receptor coactivator 3 (Homo sapiens, UniProt P37231); assay type: functional;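 further: agonist potency for raising coactivator recruitment to the receptor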
[8] = target: Peroxisome proliferator-activated receptor gamma/Nuclear receptor coactivator 1 (Homo sapiens, UniProt P37231); assay type: functional;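 further: agonist potency as compounds enhance coactivator SRC-1 recruitment to PPARgamma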
[9] = target: Peroxisome proliferator-activated receptor gamma/Nuclear receptor coactivator 2 (Homo sapiens, UniProt P37231); assay type: functional;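 further: agonist potency for raising coactivator recruitment to the receptor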
Chain of Peroxisome proliferator-activated receptor gamma/Nuclear receptor coactivator 2 (P37231 whole entry): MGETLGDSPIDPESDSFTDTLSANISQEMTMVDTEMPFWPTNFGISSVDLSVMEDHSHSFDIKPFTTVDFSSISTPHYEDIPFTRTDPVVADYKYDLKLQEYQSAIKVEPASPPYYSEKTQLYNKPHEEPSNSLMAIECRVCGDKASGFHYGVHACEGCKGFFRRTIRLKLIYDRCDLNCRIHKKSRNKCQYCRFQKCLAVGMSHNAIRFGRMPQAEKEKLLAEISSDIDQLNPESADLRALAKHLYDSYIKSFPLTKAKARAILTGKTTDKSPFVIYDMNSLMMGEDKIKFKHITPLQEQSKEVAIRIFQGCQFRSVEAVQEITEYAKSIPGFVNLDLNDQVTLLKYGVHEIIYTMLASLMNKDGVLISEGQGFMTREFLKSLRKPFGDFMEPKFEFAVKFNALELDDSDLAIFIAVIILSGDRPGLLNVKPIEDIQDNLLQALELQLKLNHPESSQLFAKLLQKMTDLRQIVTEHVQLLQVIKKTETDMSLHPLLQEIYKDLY
Chain of Peroxisome proliferator-activated receptor gamma/Nuclear receptor coactivator 2 (Q15596 whole entry, further chain): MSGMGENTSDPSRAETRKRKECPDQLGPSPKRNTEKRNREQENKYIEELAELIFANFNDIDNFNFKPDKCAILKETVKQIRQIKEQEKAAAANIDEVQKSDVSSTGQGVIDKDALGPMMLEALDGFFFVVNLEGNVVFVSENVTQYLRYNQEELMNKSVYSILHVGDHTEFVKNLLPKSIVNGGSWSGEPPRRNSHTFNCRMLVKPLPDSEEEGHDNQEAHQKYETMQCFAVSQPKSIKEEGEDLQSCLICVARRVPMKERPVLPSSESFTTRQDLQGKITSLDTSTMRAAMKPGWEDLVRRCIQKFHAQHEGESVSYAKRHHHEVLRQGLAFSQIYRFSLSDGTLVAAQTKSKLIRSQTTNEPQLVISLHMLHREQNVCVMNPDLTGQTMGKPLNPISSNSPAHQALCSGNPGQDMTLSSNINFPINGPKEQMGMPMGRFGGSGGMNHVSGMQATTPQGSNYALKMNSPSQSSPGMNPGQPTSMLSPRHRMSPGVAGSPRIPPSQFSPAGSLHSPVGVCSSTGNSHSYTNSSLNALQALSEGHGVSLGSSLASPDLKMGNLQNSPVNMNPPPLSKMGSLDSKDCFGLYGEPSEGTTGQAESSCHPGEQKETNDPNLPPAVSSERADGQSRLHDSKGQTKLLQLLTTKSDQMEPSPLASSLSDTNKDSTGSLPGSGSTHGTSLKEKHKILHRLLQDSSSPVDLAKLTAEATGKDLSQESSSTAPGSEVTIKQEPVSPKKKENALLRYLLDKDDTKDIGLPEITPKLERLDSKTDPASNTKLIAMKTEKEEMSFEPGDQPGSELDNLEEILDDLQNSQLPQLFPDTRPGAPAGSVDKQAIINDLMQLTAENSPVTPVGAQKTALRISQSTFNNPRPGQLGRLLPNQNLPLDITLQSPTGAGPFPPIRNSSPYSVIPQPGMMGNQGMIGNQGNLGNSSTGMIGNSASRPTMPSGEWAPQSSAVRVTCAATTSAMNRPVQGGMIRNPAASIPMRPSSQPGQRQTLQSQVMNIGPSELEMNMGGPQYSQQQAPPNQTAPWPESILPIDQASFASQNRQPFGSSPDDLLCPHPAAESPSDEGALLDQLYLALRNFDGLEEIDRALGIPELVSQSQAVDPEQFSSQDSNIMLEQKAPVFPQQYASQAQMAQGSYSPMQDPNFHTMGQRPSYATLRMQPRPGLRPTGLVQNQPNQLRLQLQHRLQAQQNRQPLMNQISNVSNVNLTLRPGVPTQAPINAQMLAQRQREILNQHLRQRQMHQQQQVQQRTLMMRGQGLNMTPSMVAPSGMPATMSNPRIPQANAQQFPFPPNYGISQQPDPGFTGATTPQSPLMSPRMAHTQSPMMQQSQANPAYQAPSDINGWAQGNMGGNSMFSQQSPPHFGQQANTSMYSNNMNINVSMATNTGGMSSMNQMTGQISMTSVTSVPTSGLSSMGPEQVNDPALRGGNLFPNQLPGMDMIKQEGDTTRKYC

[10] = target: T2, Voltage-gated N-type calcium channel alpha-1B subunit/Amyloid beta A4 precursor protein-binding family A member 1 (Homo sapiens, UniProt Q00975+Q02410); assay type: protein assay
T2 sequence (Q00975 whole entry): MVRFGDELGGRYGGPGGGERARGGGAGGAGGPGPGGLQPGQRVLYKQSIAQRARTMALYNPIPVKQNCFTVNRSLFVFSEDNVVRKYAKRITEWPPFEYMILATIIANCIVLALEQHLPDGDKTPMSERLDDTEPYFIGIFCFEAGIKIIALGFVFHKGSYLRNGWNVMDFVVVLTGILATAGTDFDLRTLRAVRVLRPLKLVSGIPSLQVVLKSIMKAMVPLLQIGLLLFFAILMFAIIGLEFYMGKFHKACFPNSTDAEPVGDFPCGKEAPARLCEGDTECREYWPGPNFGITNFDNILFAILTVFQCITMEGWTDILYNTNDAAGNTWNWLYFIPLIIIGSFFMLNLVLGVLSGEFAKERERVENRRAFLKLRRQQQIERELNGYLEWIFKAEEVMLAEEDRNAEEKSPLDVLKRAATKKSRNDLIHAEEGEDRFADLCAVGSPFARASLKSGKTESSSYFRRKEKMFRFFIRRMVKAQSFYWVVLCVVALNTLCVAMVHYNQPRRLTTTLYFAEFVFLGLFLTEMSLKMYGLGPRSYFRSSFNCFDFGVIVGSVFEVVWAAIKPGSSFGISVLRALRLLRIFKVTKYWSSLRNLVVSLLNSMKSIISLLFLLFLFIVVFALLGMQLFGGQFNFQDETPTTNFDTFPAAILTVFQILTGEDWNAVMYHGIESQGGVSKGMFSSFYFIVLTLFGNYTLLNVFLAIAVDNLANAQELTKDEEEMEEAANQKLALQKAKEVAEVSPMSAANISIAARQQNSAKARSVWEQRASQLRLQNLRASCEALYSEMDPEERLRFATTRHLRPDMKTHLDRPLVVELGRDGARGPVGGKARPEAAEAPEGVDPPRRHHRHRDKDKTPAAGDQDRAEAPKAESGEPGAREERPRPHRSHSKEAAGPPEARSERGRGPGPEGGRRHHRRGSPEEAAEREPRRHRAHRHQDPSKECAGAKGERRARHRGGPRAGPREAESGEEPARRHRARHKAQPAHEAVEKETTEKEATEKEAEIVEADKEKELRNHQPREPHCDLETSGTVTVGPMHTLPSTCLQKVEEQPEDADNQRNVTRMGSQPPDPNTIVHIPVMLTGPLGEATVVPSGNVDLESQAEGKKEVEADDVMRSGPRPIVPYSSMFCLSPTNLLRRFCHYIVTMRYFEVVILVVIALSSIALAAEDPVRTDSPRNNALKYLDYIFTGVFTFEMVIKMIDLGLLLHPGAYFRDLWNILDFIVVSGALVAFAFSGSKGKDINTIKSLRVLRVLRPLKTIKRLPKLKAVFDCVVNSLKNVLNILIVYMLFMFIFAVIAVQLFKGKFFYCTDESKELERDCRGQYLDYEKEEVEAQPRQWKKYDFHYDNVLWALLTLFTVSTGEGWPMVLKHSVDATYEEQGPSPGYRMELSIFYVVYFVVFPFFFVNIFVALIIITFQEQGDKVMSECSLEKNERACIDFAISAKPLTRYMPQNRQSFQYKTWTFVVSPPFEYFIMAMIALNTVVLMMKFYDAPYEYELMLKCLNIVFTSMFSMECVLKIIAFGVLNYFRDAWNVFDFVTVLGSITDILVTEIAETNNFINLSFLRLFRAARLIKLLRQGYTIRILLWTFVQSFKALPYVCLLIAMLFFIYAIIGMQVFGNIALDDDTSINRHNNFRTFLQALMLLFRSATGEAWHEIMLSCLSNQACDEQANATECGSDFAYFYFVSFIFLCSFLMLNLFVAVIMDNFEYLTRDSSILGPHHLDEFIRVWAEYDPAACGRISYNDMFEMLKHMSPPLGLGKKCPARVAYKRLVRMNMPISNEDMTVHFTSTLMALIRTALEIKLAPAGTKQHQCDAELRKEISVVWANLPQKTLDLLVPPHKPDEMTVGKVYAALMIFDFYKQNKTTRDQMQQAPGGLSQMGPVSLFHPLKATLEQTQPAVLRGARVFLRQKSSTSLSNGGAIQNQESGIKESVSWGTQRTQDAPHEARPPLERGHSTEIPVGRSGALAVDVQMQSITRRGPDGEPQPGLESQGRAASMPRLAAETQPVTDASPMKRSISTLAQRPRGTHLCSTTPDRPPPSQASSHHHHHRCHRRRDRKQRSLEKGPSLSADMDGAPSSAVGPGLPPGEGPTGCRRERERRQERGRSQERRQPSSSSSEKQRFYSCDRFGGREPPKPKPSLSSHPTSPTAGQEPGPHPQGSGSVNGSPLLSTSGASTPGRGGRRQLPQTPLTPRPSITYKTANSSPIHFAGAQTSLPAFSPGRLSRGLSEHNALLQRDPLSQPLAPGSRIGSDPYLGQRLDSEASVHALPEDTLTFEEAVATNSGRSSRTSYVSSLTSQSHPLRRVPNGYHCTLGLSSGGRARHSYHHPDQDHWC
T2 sequence (Q02410 whole entry): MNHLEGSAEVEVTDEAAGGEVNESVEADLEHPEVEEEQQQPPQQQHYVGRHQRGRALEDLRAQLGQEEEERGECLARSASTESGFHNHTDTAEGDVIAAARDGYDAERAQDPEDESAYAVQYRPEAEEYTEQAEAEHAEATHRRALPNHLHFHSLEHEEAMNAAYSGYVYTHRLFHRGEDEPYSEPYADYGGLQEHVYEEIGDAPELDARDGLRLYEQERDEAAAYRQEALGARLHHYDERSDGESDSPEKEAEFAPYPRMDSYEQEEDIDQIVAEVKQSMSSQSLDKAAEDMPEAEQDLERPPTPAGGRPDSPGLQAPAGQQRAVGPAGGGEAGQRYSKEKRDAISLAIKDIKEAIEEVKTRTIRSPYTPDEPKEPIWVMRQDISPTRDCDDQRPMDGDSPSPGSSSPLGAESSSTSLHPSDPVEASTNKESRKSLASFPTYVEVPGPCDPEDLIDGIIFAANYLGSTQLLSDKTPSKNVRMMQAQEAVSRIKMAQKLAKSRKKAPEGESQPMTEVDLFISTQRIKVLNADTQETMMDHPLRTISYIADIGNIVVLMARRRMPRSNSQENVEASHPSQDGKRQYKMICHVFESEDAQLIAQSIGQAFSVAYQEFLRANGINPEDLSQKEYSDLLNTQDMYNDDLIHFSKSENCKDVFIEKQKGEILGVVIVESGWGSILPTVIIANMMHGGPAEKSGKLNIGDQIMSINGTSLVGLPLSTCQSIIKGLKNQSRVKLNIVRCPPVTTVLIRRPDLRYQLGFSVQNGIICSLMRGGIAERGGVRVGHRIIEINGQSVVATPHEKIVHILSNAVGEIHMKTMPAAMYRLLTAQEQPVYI

[11] = target: T3, Polyadenylate-binding protein 1 (Homo sapiens, UniProt P11940); assay: PABP1 MLLE–PAM2 interaction inhibitors, dose response, miRNA deadenylation inhibitor project, biochemical, fluorescence polarization, Cy5-PAM2 peptide, secondary (AID 602260); assay type: functional; conditions: read-out: IC50_Mean
[12] = target: T2, Voltage-gated N-type calcium channel alpha-1B subunit/Amyloid beta A4 precursor protein-binding family A member 1; assay type: protein assay; remark: listed apart in the source
[13] = target: T3, Polyadenylate-binding protein 1; assay: PABP1 MLLE–PAM2 binding inhibitor potency, dose response, biochemical, fluorescence polarization, FITC-PAM2 peptide (AID 602259); assay type: functional; conditions: read-out: IC50_Mean
[14] = target: T4, Ubiquitin-conjugating enzyme E2 N (Homo sapiens, UniProt P61088); assay type: functional;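 further: Dose-response confirmation in a TR-FRET assay detecting UBC13-driven polyubiquitin chain formation, inhibition measured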
T4 sequence (P61088 whole entry): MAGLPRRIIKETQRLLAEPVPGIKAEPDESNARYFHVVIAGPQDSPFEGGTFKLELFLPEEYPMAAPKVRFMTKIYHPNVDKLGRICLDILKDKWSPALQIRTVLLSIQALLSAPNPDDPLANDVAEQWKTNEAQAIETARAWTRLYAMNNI

[15] = target: DNA dC->dU-editing enzyme APOBEC-3A (Homo sapiens, UniProt P31941); assay: APOBEC3A DNA deaminase inhibitors, dose response, biochemical (AID 504722); assay type: functional
[16] = target: Glucose-6-phosphate 1-dehydrogenase (Homo sapiens, UniProt P11413); assay: human G6PD enzyme inhibitors, dose response, selectivity assay for P. falciparum G6PD inhibitor project, biochemical, fluorescence (AID 504792); assay type: functional
[17] = target: DNA dC->dU-editing enzyme APOBEC-3G (Homo sapiens, UniProt Q9HC16); assay: Dose Response confirmation of small molecule APOBEC3G DNA Deaminase Inhibitors via a fluorescence-based single-stranded DNA deaminase assay. [Related pubchem assays (depositor defined):AID493012, AID493028]; assay type: functional

COc1cccc2cc(-c3csc(NC(=O)CCC(=O)NCCCN4CCC(C)CC4)n3)c(=O)oc12
EC50 [1]: 11.5 µM (active)
EC50 (BJ [2]): 13.3 µM (active)
EC50 (BJ [3]): 12.7 µM (active)
EC50 (BJ [4]): > 150 µM (not active)

CCN(CC)C(=O)CSc1nc2cc(OC)c(OC)cc2c(=O)n1Cc1ccc(Cl)cc1
IC50 (Ephrin type-A receptor 4): > 100 µM (not active)

COc1ccc(-n2c3c(cc(C(=O)NCc4ccco4)c2=O)C(=O)CC(C)(C)C3)cc1
EC50 [5]: 3.76 µM (active)

Nc1nc(-c2ccccc2)nn1C(=O)Cc1ccccc1
IC50 (Prothrombin): 1.51 µM (active)

COc1cc(OC)cc(C(=O)Nc2ccc(NC(=O)c3ccco3)c(C)c2)c1
EC50 [1]: 9.93 µM (active)
EC50 (BJ [2]): 10.1 µM (active)
EC50 (BJ [3]): 15.2 µM (active)
EC50 (BJ [4]): 19.5 µM (active)

COC(=O)Cc1ccc(NC(S)=NCc2ccc(Cl)cc2)cc1
EC50 [6]: > 50 µM (active)

CCn1cc(/C=C/C(=O)Nc2ccn(Cc3c(F)c(F)c(F)c(F)c3F)n2)cn1
EC50 [7]: > 79.4 µM (not active)
EC50 [8]: > 79.4 µM (not active)
EC50 [9]: > 79.4 µM (not active)

CCCC1(c2ccccc2)NC(=O)N(CC(=O)Nc2cc(S(=O)(=O)N3CCOCC3)ccc2Cl)C1=O (stereo not given)
EC50 [6]: > 50 µM (active)

COc1ccc(OC)c(NC(=O)CSc2nnc(N)s2)c1
EC50 [7]: > 79.4 µM (not active)
EC50 [8]: > 79.4 µM (not active)
EC50 [9]: > 79.4 µM (not active)

COc1cccc(-c2ccc(SCc3ccccn3)nn2)c1
EC50 [6]: > 50 µM (active)

N#CC1=C(N)N=C(S)C(C(N)=O)C1c1ccc([N+](=O)[O-])cc1 (stereo not given)
IC50 [10]: > 50 µM (inactive)
IC50 [11]: > 66 µM (inactive)
IC50 [12]: 5.63 µM (active)
IC50 [13]: > 66 µM (inactive)

CCCCCCNC(=O)N[C@@H](C(=O)NCCC[C@H]1CN2C(=NC[C@@H]2Cc2ccccc2)N1CCc1cccc(OC)c1)C(C)C
IC50 [14]: > 20 µM (inactive)

Cc1cc(C)c2c(=O)n(CC(=O)Nc3cccc(F)c3)sc2n1
IC50 [15]: > 100 µM (inactive)
IC50 [16]: 22.1 µM (inactive)
IC50 [17]: 4.35 µM (active)
IC50 [10]: > 50 µM (inactive)
IC50 [12]: 8.62 µM (active)
